The target in experiment [1] is AURORA A (Homo sapiens, UniProt O14965). Nature of the experiment: SignalChem radioisotope protein kinase assay. Format: biochemical. The settings on record: 5 μl of 100 μM stock solution in 25 μl. From the text: (§1) The various protein kinase targets to be employed in the kinase profiling assay were cloned, expressed and purified in-house at SignalChem (Richmond, BC, Canada) using proprietary methods. Quality control testing is routinely performed on each of the SignalChem targets to ensure compliance to acceptable standards. Protein substrates employed in the target profiling process were synthesized internally. ^33P-ATP was purchased from PerkinElmer. All other materials were of standard grade. Compound 10 (FIG. 4) was supplied to SignalChem in a powder form. It was reconstituted in DMSO to form a stock solution which was then diluted with 10% DMSO to form a working stock solution (100 μM) that was then profiled against the various protein kinase targets. The assay conditions for the various protein kinase targets were optimized to yield acceptable enzymatic activity. In addition, the assays were optimized to give high signal-to-noise ratio.
Chain of AURORA A (O14965 whole entry): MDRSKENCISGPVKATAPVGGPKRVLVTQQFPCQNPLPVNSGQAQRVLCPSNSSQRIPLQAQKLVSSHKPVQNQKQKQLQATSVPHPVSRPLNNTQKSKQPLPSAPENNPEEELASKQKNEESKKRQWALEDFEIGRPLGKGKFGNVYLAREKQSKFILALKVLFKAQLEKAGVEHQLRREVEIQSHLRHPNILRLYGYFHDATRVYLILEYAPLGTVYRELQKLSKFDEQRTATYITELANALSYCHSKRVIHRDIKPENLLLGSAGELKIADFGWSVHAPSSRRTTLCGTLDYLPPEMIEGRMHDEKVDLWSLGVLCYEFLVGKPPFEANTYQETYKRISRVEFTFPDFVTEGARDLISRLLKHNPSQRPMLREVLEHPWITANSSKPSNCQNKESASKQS
(§2) SignalChem uses a radioisotope assay format for profiling evaluation of protein kinase targets. Protein kinase assays were performed in triplicate at ambient temperature for 20-40 min (depending on the target) in a final volume of 25 μl according to the following assay reaction recipe: • Component 1: 5 μl of diluted active protein kinase target (˜10-40 nM final protein concentration in the assay) • Component 2: 5 μl of stock solution of substrate (1-5 μg of peptide or protein substrate) • Component 3: 5 μl of kinase assay buffer or protein kinase activator in kinase assay buffer • Component 4: 5 μl of Compound 10 (100 μM stock solution) or 10% DMSO • Component 5: 5 μl of 33P-ATP (25 μM stock solution, 0.8 μCi)
(§3) The assay was initiated by the addition of ^33P-ATP and the reaction mixture incubated at ambient temperature for 20-40 minutes, depending on the protein kinase target. After the incubation period, the assay was terminated by spotting 10 μl of the reaction mixture onto a Millipore Multiscreen plate. The Millipore Multiscreen plate was washed 3 times for approximately 15 minutes each in a 1% phosphoric acid solution. The radioactivity on the P81 plate was counted in the presence of scintillation fluid in a Trilux scintillation counter. Blank control, which included all the assay components except the addition of the appropriate substrate (replaced with equal volume of assay dilution buffer), was set up for each protein kinase target. The corrected activity for each protein kinase target was determined by removing the blank control value.

In experiment [2] the target is AURORA B (Homo sapiens, UniProt Q96GD4). In words: SignalChem radioisotope protein kinase assay. The settings on record: 5 μl of 100 μM stock solution in 25 μl. Format: biochemical.
From the text: as §1, §2, §3

The target of experiment [3] is BRK (Homo sapiens, UniProt Q13882). Nature of the experiment: SignalChem radioisotope protein kinase assay. Format: biochemical. The settings on record: 5 μl of 100 μM stock solution in 25 μl.
From the text: as §1, §2, §3

The target in experiment [4] is MARK1 (Homo sapiens, UniProt Q9P0L2). In words: SignalChem radioisotope protein kinase assay. Format: biochemical. The settings on record: 5 μl of 100 μM stock solution in 25 μl.
From the text: as §1, §2, §3

Experiment [5] concerns the target PDGFRα (Homo sapiens, UniProt P16234). In words: SignalChem radioisotope protein kinase assay. Format: biochemical. The settings on record: 5 μl of 100 μM stock solution in 25 μl.
From the text: as §1, §2, §3

In experiment [6] the target is PIM2 (Homo sapiens, UniProt Q9P1W9). In words: SignalChem radioisotope protein kinase assay. Format: biochemical. Particulars: 5 μl of 100 μM stock solution in 25 μl.
From the text: as §1, §2, §3

Experiment [7] addresses T1, SGK1 (Homo sapiens, UniProt O00141).
T1 construct: purchased SignalChem
In words: SignalChem radioisotope protein kinase assay. Format: biochemical. The settings on record: 5 μl of 100 μM stock solution in 25 μl.
From the text: as §1, §2, §3

Experiment [8] concerns the target PAK3 (Homo sapiens, UniProt O75914). In words: Ambit kinase phage display ATP-binding-site ligand binding assay. The settings on record: read-out: % Inhibition of binding to ATP-binding-site ligand.
From the text: (§4) This assay is based on ligand-affinity/protein kinase phage display and was employed essentially as described by Fabian et. al [Nature Biotech. […] In this assay, protein kinases are cloned into T7 bacteriophage which express the kinase fusion proteins on the phage capsid. T7 kinase-tagged phage are then screened for binding to ATP-binding-site ligands that have been immobilized on a solid support. Phage are screened for binding to the anchored ligands both in the presence of test compound and in its absence (control). Elution of the bound phage by free ligand (ATP-binding site ligand that is not immobilized on a solid support) followed by determination of the phage titre provides a reliable measure of the ability of test compounds to block binding of target kinases to resin-bound ATP-binding-site ligands.
(§5) T7 kinase-tagged phage strains were grown in parallel in microtiter plates in a proprietary bacterial host derived from E. Coli strain BL21. E. Coli were grown to a log phase, infected with T7 kinase-tagged phage, and incubated while shaking at 32° C. until bacterial lysis (approx. 90 min). Lysates were centrifuged (6,000 g) and filtered (0.2 μm). […] The phage titre of the eluates was measured by quantitative PCR or by plaque assays. […]
Experiment [9] concerns the target RPS6KA2 (Homo sapiens, UniProt Q15349). The experiment is described as above. Particulars: read-out: percent inhibition of binding.
From the text: as §4, §5
Experiment [10] has as its target CIT (Homo sapiens, UniProt O14578). The description is as above. Particulars: read-out: percent inhibition of binding.
From the text: (§6) In this assay, protein kinases are cloned into T7 bacteriophage which express the kinase fusion proteins on the phage capsid. T7 kinase-tagged phage are then screened for binding to ATP-binding-site ligands that have been immobilized on a solid support. Phage are screened for binding to the anchored ligands both in the presence of test compound and in its absence (control). Elution of the bound phage by free ligand (ATP-binding site ligand that is not immobilized on a solid support) followed by determination of the phage titre provides a reliable measure of the ability of test compounds to block binding of target kinases to resin-bound ATP-binding-site ligands.
(§7) T7 kinase-tagged phage strains were grown in parallel in microtiter plates in a proprietary bacterial host derived from E. Coli strain BL21. E. Coli were grown to a log phase, infected with T7 kinase-tagged phage, and incubated while shaking at 32° C. until bacterial lysis (approx. 90 min). Lysates were centrifuged (6,000 g) and filtered (0.2 μm). Small molecule ATP-binding-site-specific ligands were anchored to solid supports via a two step process beginning with biotin conjugation followed by treatment of the biotin/small molecule conjugate with streptavidin-coated magnetic beads. […] The phage titre of the eluates was measured by quantitative PCR or by plaque assays. […]
Experiment [11] concerns the target SNF1LK (Homo sapiens, UniProt P57059). The description is as above. Particulars: read-out: percent inhibition of binding.
From the text: as §6, §7
Experiment [12] addresses CLK3 (Homo sapiens, UniProt P49761). The experiment is described as above. The settings on record: read-out: percent inhibition of binding.
From the text: as §6, §7
Experiment [13] concerns the target EGFR(L747-T751del,Sins) (Homo sapiens, UniProt P00533, DEL747-750/T751S). The experiment is described as above. The settings on record: read-out: percent inhibition of binding.
From the text: as §4, §5
Experiment [14] deals with BMPR2 (Homo sapiens, UniProt Q13873). Described as above. The settings on record: read-out: percent inhibition of binding.
From the text: as §4, §5
Experiment [15] addresses HCK (Homo sapiens, UniProt P08631). The experiment is described as above. Particulars: read-out: percent inhibition of binding.
From the text: as §4, §5
Experiment [16] has as its target RPS6KA6(kin.Dom.2) (Homo sapiens, UniProt Q9UK32). Described as above. The settings on record: read-out: percent inhibition of binding.
From the text: as §4, §5
Experiment [17] concerns the target PHKG2 (Homo sapiens, UniProt P15735). The experiment is described as above. The settings on record: read-out: percent inhibition of binding.
From the text: as §4, §5
Experiment [18] has as its target PDGFRB (Homo sapiens, UniProt P09619). Described as above. Particulars: read-out: percent inhibition of binding.
From the text: as §6, §7
The target in experiment [19] is DAPK1 (Homo sapiens, UniProt P53355). The description is as above. The settings on record: read-out: percent inhibition of binding.
Chain of DAPK1 (P53355 whole entry): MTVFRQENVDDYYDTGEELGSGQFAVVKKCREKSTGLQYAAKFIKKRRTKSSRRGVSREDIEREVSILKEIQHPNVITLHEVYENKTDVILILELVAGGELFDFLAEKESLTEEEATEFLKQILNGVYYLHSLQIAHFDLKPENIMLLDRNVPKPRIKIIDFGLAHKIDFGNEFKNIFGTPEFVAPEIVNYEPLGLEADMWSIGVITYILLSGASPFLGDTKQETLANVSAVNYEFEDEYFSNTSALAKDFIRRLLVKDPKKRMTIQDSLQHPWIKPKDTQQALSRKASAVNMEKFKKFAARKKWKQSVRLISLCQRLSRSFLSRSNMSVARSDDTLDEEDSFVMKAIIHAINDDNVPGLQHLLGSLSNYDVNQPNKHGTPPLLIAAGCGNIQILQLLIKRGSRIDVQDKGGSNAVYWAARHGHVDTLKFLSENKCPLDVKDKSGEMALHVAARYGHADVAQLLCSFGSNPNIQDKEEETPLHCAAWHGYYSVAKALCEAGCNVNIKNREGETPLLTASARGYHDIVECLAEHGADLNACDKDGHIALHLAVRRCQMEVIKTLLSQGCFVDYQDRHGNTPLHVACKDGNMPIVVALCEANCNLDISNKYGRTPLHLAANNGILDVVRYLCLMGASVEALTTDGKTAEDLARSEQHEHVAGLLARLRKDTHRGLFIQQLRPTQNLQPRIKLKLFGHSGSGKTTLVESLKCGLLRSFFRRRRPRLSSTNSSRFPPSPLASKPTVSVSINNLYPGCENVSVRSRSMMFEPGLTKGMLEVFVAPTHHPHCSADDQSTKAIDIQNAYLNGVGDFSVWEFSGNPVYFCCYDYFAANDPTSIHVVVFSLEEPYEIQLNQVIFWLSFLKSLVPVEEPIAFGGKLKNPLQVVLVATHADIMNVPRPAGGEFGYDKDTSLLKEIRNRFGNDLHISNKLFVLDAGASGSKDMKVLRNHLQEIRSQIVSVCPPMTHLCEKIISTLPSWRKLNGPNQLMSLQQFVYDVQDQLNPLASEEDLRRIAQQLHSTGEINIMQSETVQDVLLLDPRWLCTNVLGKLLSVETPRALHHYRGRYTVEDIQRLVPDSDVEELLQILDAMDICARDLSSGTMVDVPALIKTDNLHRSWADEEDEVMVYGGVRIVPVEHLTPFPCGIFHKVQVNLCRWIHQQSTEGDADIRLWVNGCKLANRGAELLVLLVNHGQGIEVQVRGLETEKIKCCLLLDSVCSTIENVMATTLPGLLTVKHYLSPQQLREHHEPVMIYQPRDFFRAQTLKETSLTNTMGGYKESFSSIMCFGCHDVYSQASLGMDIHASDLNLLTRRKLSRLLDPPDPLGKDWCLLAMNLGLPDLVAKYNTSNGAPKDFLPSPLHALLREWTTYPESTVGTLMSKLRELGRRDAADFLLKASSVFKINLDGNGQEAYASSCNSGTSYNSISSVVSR
From the text: as §6, §7
In experiment [20] the target is CAMKK2 (Homo sapiens, UniProt Q96RR4). Described as above. Particulars: read-out: percent inhibition of binding.
Chain of CAMKK2 (Q96RR4 whole entry): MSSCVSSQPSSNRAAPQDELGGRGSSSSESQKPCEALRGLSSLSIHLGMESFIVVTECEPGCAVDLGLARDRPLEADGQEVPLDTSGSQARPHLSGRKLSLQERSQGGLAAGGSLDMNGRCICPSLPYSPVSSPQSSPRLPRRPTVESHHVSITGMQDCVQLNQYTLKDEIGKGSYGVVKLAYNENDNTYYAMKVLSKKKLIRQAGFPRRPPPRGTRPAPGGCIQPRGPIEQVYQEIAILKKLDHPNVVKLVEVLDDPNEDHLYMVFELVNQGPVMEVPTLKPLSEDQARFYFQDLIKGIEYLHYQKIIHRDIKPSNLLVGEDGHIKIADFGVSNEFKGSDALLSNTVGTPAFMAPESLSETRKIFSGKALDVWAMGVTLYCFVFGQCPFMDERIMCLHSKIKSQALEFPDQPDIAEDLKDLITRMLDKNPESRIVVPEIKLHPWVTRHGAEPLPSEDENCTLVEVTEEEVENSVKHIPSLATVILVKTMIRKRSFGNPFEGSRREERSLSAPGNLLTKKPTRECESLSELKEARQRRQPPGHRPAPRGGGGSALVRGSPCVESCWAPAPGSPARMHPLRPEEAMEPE
From the text: as §6, §7
The test system of experiment [21] is MDA-MB-468. Nature of the experiment: NCI 60 in vitro screen (SRB), Breast Cancer. Format: cell-based, human. The protocol: Mean ODtzero=The average of optical density measurements SRB-derived color just before exposure of cells to the test compound. Mean ODtest=The average of optical density measurement of SRB-derived color after 48 hours exposure of cells to the test compound. Mean ODctrl=The average of optical density measurements of SRB-derived color after 48 hours with no exposure of cells to the test compound.

The source of these data is US20100152434A1, “Protein Kinase-binding Nucleosides and Associated Methods” (priority 2007, published 2010).

Chain of PDGFRα (P16234 24-1089, species assumed): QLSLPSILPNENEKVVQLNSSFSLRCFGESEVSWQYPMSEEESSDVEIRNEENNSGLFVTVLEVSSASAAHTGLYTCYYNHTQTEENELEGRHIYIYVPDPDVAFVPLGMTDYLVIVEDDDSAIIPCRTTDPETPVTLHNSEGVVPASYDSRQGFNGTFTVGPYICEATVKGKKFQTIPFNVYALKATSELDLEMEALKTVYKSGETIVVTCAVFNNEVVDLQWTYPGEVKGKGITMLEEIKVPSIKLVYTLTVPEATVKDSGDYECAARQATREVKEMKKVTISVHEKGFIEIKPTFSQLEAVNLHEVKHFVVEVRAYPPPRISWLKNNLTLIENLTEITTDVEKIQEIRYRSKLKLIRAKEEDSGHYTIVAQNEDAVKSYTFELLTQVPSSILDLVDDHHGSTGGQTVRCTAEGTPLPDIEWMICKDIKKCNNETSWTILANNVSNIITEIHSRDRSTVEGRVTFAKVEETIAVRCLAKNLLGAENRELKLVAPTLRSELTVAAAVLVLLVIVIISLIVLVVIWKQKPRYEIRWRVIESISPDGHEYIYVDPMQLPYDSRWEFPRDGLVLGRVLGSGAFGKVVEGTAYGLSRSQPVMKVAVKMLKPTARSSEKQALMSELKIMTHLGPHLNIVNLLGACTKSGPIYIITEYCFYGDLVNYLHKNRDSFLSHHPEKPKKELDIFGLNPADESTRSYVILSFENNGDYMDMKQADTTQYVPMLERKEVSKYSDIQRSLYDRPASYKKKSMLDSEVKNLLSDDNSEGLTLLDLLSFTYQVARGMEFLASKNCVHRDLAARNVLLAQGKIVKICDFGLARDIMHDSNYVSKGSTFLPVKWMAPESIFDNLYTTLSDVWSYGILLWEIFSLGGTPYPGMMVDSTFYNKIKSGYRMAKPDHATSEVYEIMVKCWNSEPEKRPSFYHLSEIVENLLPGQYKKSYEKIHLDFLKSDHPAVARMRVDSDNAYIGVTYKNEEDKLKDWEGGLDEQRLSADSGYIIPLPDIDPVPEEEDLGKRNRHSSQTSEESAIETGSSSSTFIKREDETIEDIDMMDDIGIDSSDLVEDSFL
Chain of RPS6KA6(kin.Dom.2) (Q9UK32 426-683 limits assumed): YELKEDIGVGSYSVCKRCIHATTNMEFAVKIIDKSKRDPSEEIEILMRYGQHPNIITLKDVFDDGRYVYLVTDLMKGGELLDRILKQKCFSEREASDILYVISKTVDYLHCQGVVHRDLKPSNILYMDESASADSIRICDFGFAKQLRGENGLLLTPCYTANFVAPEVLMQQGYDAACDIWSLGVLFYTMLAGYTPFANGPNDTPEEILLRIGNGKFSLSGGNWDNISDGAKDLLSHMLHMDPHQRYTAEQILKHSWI
Chain of RPS6KA2 (Q15349 whole entry): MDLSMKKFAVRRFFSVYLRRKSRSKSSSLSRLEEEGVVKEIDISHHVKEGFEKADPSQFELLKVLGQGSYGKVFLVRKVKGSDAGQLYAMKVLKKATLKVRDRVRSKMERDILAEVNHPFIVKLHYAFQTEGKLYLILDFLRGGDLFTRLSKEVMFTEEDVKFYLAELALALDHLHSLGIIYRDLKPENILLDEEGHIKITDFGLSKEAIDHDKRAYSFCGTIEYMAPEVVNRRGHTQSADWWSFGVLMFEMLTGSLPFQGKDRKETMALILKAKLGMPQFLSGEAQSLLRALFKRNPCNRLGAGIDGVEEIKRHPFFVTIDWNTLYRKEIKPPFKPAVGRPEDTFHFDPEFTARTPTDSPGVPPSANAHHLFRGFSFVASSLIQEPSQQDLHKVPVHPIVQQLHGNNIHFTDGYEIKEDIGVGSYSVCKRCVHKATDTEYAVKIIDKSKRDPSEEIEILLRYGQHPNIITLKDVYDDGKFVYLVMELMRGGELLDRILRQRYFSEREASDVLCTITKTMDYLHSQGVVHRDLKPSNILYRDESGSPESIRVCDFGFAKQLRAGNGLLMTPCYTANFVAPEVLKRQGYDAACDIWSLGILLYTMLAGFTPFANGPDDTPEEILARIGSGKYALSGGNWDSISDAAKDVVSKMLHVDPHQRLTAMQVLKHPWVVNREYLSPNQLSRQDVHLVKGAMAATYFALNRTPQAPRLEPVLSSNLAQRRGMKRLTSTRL
Chain of PHKG2 (P15735 whole entry): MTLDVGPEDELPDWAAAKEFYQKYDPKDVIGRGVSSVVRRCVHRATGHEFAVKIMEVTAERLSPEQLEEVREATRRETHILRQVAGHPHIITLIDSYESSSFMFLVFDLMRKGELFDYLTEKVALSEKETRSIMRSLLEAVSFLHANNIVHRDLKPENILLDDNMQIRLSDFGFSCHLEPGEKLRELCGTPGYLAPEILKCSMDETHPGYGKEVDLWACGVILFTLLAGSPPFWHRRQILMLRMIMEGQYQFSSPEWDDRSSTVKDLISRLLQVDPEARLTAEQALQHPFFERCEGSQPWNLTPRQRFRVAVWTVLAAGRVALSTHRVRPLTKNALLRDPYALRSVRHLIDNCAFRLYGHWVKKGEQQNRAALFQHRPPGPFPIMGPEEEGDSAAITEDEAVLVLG

For `CCOC(=O)C[C@@H]1C(O[Si](C)(C)C(C)(C)C)[C@H](n2cnc3c(NC(=O)Nc4ccccc4)ncnc32)O[C@@H]1CNC(=O)NC` (stereo partly shown) [Compound 10], the “% Activity Change” value in [1] is 1%; in [2], 4%; in experiment [3], 2%; in experiment [4] it was 5%; in experiment [5], −2%; in experiment [6] it was 18%. In addition, the “% Activity Change” value in experiment [7] turned out to be 36%. Besides, the inhibition at 10 µM in [8] is 33%; in experiment [9], 20 to 29%; in experiment [10], 20 to 29%; in [11], 20 to 29%; in experiment [12] it was 20 to 29%; in experiment [13] it was 20 to 29%. The inhibition at 10 µM in [14], in experiment [15], in [16], in experiment [17], in experiment [18] and in experiment [19] was 20 to 29% in each case. In addition, in [20], the inhibition at 10 µM was 20 to 29%.
Regarding `CNC(=O)NC[C@H]1O[C@@H](n2cnc3c(NC(=O)Nc4ccccc4)ncnc32)C(O[Si](C)(C)C(C)(C)C)[C@H]1O[Si](C)(C)C(C)(C)C` (stereo partly shown) [Compound 25, 2′,3′-Bis-O-(tert-butyldimethylsilyl)-5-deoxy-5′-[(N-methylcarbamoyl)amino]-N^6-(N-phenylcarbamoyl)adenosine], the TGI in experiment [21] stood at 1.39E−5 Molar. Moreover, the GI50 in [21] (Homo sapiens) came out at 3.35 µM. The compound also gave an IC50 in experiment [21] (Homo sapiens) of over 100 µM. Further, the “Percent Growth” value in [21] (Log10 Concentration −4.0 Molar) was −35%; in [21] (Log10 Concentration −5.0 Molar) it was 5%; in experiment [21] (Log10 Concentration −6.0 Molar), 99%; in experiment [21] (Log10 Concentration −7.0 Molar), 104%; in experiment [21] (Log10 Concentration −8.0 Molar), 101%.
